Entries after “also recorded” stand apart in the source; their conditions may differ. Like-named read-outs stand apart in the source and are kept apart here.
Key:
SARS-CoV-2 [1] = type: in vivo, mice
[2] = test system: SARS-CoV-2 (original wild-type, hCoV-19/Korea/KCDC06/2020); test: microbe, parasite or virus in culture; type: cell-based; settings: for EC50: Severe acute respiratory syndrome coronavirus 2, Vero cells, immunofluorescence images, n = 3, read-out: EC50, half maximal effective concentration to reduce SARS-CoV-2 spike protein expression by 50%
[3] = cited from earlier work
SARS-CoV-2 [4] = test: Antiviral activity assay (anti-S immunofluorescence) in Calu-3 cells; settings: Severe acute respiratory syndrome coronavirus 2, Calu-3, 24 h
Text: These mixtures were serially diluted threefold, eight times, in EMEM and used to treat SARS-CoV-2-infected Calu-3 cells (MOI of 0.01). On day 1, cells were immunostained with an anti-S-antibody and its fluorescently labeled secondary antibody to estimate the two fractional EC50s (FEC50s) for each drug combination, as well as their sum (ΣFEC50). The interaction was defined as synergistic when the ΣFEC50 value was less than 0.8 ([27]).
Calu-3 cells were either mock-infected or infected with SARS-CoV-2 (MOI, 0.1)
(§1) On Day 1 after treatment, the viral S protein was labeled with its specific antibody for an
immunofluorescence assay, while mock-infected cells were incubated with MTT.
(§2) activity was determined by calculating the percentage inhibition of the S protein level relative
to that in SARS-CoV-2-infected, DMSO-treated cells (red line).
(§3) are represented as the mean ± SEM from three independent experiments.

Calu-3 cells = settings: MTT
Experimental: Calu-3 cells. Calu-3 cells were either mock-infected or infected with SARS-CoV-2 (MOI, 0.1)
as §1
immunofluorescence assay, while mock-infected cells were incubated with MTT. Antiviral
as §2
to that in SARS-CoV-2-infected, DMSO-treated cells (red line). Cell viability was determined
by measuring cell metabolic activity using MTT relative to naive cells (black line). All values
as §3

in vitro = settings: African green monkey
Experimental: Following the method described earlier, Vero cells in 96 wells were treated with threefold serial dilutions of each compound, ranging from 100 µM to 5 nM, both with and without SARS-CoV-2 infection at 0.01 MOI. […] Concurrently, the viability of mock-infected cells was assessed using a 3-(4,5-dimethylthiazol-2-yl)−2,5-diphenyltetrazolium bromide (MTT) assay to determine the 50% cytotoxic concentration (CC50). The selectivity index (SI) is calculated as the ratio of CC50 to EC50.

SARS-CoV-2 [5] = type: cell-based; settings: 20 µM, Vero cells; for nuclei numbers compared to the control: DAPI
[6] = mice
in vivo = settings: male, ICR, mouse, iv, 5 mg/kg, T1/2, terminal half-life in plasma, mice, diphenoxylate 5 mg/kg intravenously, analyte in plasma, mean ± SEM, three mice
[7] = test system: endo-lysosomal vesicles of Vero cells; test: Acridine orange staining of endo-lysosomal vesicle pH in Vero cells; type: cell-based; settings: 10 µM, 1 h at 37°C
Experimental: To monitor pH changes in endo-lysosomal vesicles, Vero cells (8 × 10^4 cells per 35 mm dish) were treated with either DMSO or 10 µM diphenoxylate for 1 h at 37°C. After washing with PBS, they were stained with acridine orange (8 µg/mL) for an additional 30 min. With excitation at 488 nm, live cell images were scanned at two wide-band emission wavelength ranges: 493–560 nm (green) and 590–720 nm (red). All fluorescent images were obtained using a Zeiss LSM 700 confocal microscope and analyzed with ZEN software (Carl Zeiss, Thornwood, NY, USA).
Fig 4 Deacidification of endo-lysosomal vesicles by diphenoxylate. Vero cells were treated with DMSO as a mock control (upper), or with 10 µM diphenoxylate (lower), at 37°C for 1 h. […] Fluorescence images were acquired after excitation at 488 nm, at two different emission wavelengths: 493–560 nm (green; left) and 590–720 nm (red; middle). The images were merged (right) to distinguish acidic (red) and neutralized cytoplasmic vesicles (green or yellow) based on the red-to-green fluorescence intensity ratio. […]
Figure S2. […] After excitation at 488 nm, fluorescence images were acquired at two different emission wavelengths: 493-560 nm (green; left) and 590-720 nm (red; middle). The images were merged (right) to distinguish acidic (red) and neutralized cytoplasmic vesicles (green or yellow) based on the red-to-green fluorescence intensity ratio. […]

SARS-CoV-2 [8] = type: cell-based; settings: Vero cells; 1, 10 and 100 µM; day 1
SARS-CoV-2 [9] = type: cell-based
SARS-CoV-2 [10] = type: cell-based; settings: Calu-3 cells, day 2
SARS-CoV-2 [11] = test: Antiviral assay using human tonsil organoids (RT-PCR of supernatants); type: cell-based; settings: day 2
SARS-CoV-2 [12] = type: cell-based; settings: Calu-3 cells; 0.001–100 µM; day 2
SARS-CoV-2 [13] = test: Confocal microscopy of viral N protein distribution (endocytic uptake) in Vero cells; type: cell-based; settings: 10 or 30 µM
SARS-CoV-2 [14] = type: cell-based; remark: listed apart in the source

## CC(C)C(=O)OC[C@H]1O[C@@H](n2ccc(NO)nc2=O)[C@H](O)[C@@H]1O [molnupiravir]
SARS-CoV-2 [1]; hACE2 transgenic mice, 50 mg/kg/day oral, BID, […]
  viral RNA levels in lungs (qRT-PCR, S gene): significantly reduced

## OC(CCN1CCCCC1)(c1ccccc1)c1ccccc1 [pridinol]
[2]
  EC50: ~96.4 µM

## CN(C)c1ccc2cc3ccc(N(C)C)cc3nc2c1 [acridine orange]
[3]
  pKa: approximately 9.65

## N=C(N)c1ccc2cc(OC(=O)c3ccc(N=C(N)N)cc3)ccc2c1 [nafamostat]
SARS-CoV-2 [4]
  EC50: 0.0035 ± 0.0005 µM
Calu-3 cells; 300 nM
  cytotoxicity at the highest tested concentration: no cytotoxicity

## Cc1cccc(CN2CCN(C(c3ccccc3)c3ccc(Cl)cc3)CC2)c1 (stereo not drawn) [Meclizine, meclizine]
In vitro
  CC50: 89.5 ± 4.4 µM
[2]
  SI, selectivity index, ratio of CC50 to EC50: 4.2
  EC50: 21.4 ± 3 µM
SARS-CoV-2 [5]
  nuclei numbers compared to the control: 80%–120%
  reduction of S protein expression level: over 90%

## Fc1ccc(C(c2ccc(F)cc2)N2CCN(C/C=C/c3ccccc3)CC2)cc1 [Flunarizine, flunarizine]
In vitro
  CC50: 30.6 ± 1.8 µM
[2]
  SI, selectivity index, ratio of CC50 to EC50: 2.4
  EC50: 12.9 ± 5.7 µM
SARS-CoV-2 [5]
  nuclei numbers compared to the control: 80%–120%
  reduction of S protein expression level: over 90%

## N#CC(CCN1CCC(C(=O)O)(c2ccccc2)CC1)(c1ccccc1)c1ccccc1 [Difenoxin, difenoxin]
[6]; diphenoxylate 5 mg/kg intravenously, analyte in plasma, mean ± SEM, three mice
  T1/2, terminal half-life in plasma: 3.6 ± 0.2 h
In vitro
  CC50: > 100 µM
In vivo
  half-life: 6.4 h
[7]
  effect on acidic pH of endo-lysosomal vesicles: failed to deacidify endo-lysosomes
[2]
  EC50: > 100 µM

## CCC(CC)COC(=O)[C@H](C)N[P@](=O)(OC[C@H]1O[C@@](C#N)(c2ccc3c(N)ncnn23)[C@H](O)[C@@H]1O)Oc1ccccc1 [RDV, remdesivir]
SARS-CoV-2 [8]
  levels of S2 and additional S cleavage products (Western blot): dose-dependently reduced
In vitro
  CC50: > 100 µM
SARS-CoV-2 [9]
  viral RNA copy numbers in culture supernatants: efficiently suppressed
SARS-CoV-2 [10]; concentration not given
  reduction of viral RNA levels in culture supernatants: exceeding four logs
SARS-CoV-2 [11]; 10 µM
  reduction in viral RNA levels in culture supernatants: between one and two logs
[2]
  EC50: 7.6 ± 1.2 µM

## COC(=O)C1=C(C)NC(C)=C(C(=O)OCCN2CCN(C(c3ccccc3)c3ccccc3)CC2)C1c1cccc([N+](=O)[O-])c1 (stereo not drawn) [Manidipine, manidipine]
In vitro
  CC50: 46.6 ± 0.5 µM
[2]
  SI, selectivity index, ratio of CC50 to EC50: 1.7
  EC50: 26.8 ± 1.1 µM
SARS-CoV-2 [5]
  nuclei numbers compared to the control: 80%–120%
  reduction of S protein expression level: over 90%

## CCOC(=O)C1(c2ccccc2)CCN(CCC(C#N)(c2ccccc2)c2ccccc2)CC1 [Diphenoxylate, diphenoxylate]
SARS-CoV-2 [8]
  levels of S2 and additional S cleavage products (Western blot): dose-dependently reduced
[6]; within 30 min after intravenous injection, 5 mg/kg
  fraction converted into difenoxin: approximately 90%
SARS-CoV-2 [1]; hACE2 transgenic mice, […], on day 3, 10 mg/kg/day
  reduction of viral RNA copy number in the lungs: 70%
SARS-CoV-2 [1]; mouse, in vivo, 10 mg/kg/day
  viral RNA levels in lungs (qRT-PCR, S gene): significantly reduced
In vitro
  CC50: > 100 µM
SARS-CoV-2 [12]
  expression of viral proteins S and N (Western blot): suppressed the expression of viral proteins S and N dose dependently
SARS-CoV-2 [9]
  viral RNA copy numbers in culture supernatants: efficiently suppressed
SARS-CoV-2 [13]
  effect on receptor-mediated endocytosis of SARS-CoV-2 (N protein localisation): inhibits receptor-mediated endocytosis of SARS-CoV-2
In vivo
  half-life: 6.4 ± 0.9 h
SARS-CoV-2 [14]
  reduction in plaque numbers: approximately two-log reduction; also recorded: substantial reduction; also recorded: not under the post-treatment condition
SARS-CoV-2 [14]; 20 µM, co-treatment (pre-incu), 30 min preincubation with virus
  reduction in plaque numbers: substantial reduction
[7]
  effect on acidic pH of endo-lysosomal vesicles: neutralizes the acidic environment of endo-lysosomal organelles
SARS-CoV-2 [10]; 10 µM
  decrease of viral RNA levels in culture supernatants: one
SARS-CoV-2 [4]
  EC50: 21.9 ± 2.1 µM
SARS-CoV-2 [11]; 100 µM
  reduction in viral RNA levels in culture supernatants: between one and two logs
[2]
  SI, selectivity index, ratio of CC50 to EC50: >71.4
  EC50: 1.4 ± 1.1 µM
SARS-CoV-2 [5]
  nuclei numbers compared to the control: 80%–120%
  reduction of S protein expression level: over 90%
Calu-3 cells; 300 µM
  cytotoxicity at the highest tested concentration: no cytotoxicity
